Assay results taken from patent publication US20070299114A1, “Biaryl Derivatives” (Shionogi & Co., Ltd., priority 2004, published 2007).

target: T1, dihydrooroate dehydrogenase (Homo sapiens, UniProt Q02127); experiment: dihydroorotate dehydrogenase inhibition, U-937 mitochondrial/microsomal fraction, DCIP absorbance at 620 nm; assay type: biochemical; conditions: DHODH of human U-937 cell mitochondrial/microsomal fraction; 37° C., 120 minutes
T1 construct: ultracentrifugation at 4° C. and 120,000×g for 60 minutes afforded a mitochondrial/microsomal fraction; endogenous in cells; host or cells: U-937 (human histiocytic lymphoma cell line), mitochondrial/microsomal fraction
T1 sequence (Q02127 whole entry): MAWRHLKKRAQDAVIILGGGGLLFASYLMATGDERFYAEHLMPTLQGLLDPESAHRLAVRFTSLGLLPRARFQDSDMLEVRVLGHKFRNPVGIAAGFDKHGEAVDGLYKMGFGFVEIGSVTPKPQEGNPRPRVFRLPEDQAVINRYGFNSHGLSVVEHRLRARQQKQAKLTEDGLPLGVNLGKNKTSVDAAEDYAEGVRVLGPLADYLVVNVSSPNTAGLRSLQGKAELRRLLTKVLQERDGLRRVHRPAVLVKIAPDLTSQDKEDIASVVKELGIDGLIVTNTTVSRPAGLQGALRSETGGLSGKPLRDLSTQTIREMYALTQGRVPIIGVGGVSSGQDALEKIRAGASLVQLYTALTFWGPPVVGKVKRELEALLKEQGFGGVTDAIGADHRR
Description: Method of Testing dihydrooroate dehydrogenase Inhibition
Human U-937 cell (human histiocytic lymphoma cell line) was sonicated in a homogenizing buffer (20 mM Tris-HC1, pH 7.4, containing 2 mM EDTA and protease inhibitor cocktail), and this was centrifuged at 4° C. and 1,200×g for 15 minutes to remove cell debris. Further, ultracentrifugation at 4° C. and 120,000×g for 60 minutes afforded a mitochondrial/microsomal fraction. The resulting fraction was quantitated for a protein, and prepared to 10 mg/ml, which was freezing-stored in a −40° C. in a refrigerator until measurement. To 150 μl of the reaction solution (50 mM Tris-HC1, pH 7.4, containing 0.1% Triton X-100, 1 mM KCN, 100 μM coenzyme Q10, 200 μM DCIP), were added 10 μl of a dilution series of the compound and 0.2 mg of a mitochondrial/microsomal fraction, followed by pre-incubation at 37° C. for 30 minutes. Then, 20 μl of a 5 mM DHO solution (final concentration […]), which is a substrate, was added, this was incubated at 37° C. for 120 minutes, and an absorbance at a measurement wavelength of 620 nm was measured. A rate of suppression of a compound at each concentration relative to a change in an absorbance due to the enzyme reaction was obtained, and a concentration indicating 50% inhibition (IC50 value) was calculated to assess the inhibition activity of the compound.

Row | SMILES | IC50
1 | CC(C)=CCNc1ccc(-c2cc(C)c(/C=C(\C)C(=O)NC(C)C)cc2C)c(F)c1 [Compound 116] | 3.67 nM
2 | CC/C(=C\c1cc(C)c(-c2ccc(NC3CCCC3)cc2F)cc1C)C(=O)NC1CC1 [Compound 173] | 7.13 nM
3 | C/C(=C\c1cc(C)c(-c2ccc3[nH]c(C)cc3c2)cc1C)C(=O)NC(C)C [Compound 383] | 13.6 nM
4 | C/C(=C\c1cc(C)c(-c2ccc(NC(C)C)cc2F)cc1C)C(=O)N[C@H](C)C(=O)O [Compound 349] | 8.97 nM
5 | CC/C(=C\c1cc(C)c(-c2ccc(NCc3ccco3)cc2)cc1C)C(=O)NC1CCCC1 [Compound 309] | 4.07 nM
6 | CC/C(=C\c1cc(C)c(-c2ccc(NC(C)C)cc2F)cc1C)C(=O)NC1CC1 [Compound 165] | 10.1 nM
7 | C/C(=C\c1c(C)c(F)c(-c2ccc(NC(C)C)cc2)c(C)c1F)C(=O)NC1CC1 [Compound 488] | 10 nM
8 | C/C(=C\c1c(C)c(C)c(-c2ccc3[nH]ccc3c2)c(C)c1C)C(=O)NC(C)C [Compound 427] | 13.1 nM
9 | Cc1c(F)c(-c2ccc(NC3CCCC3)cc2)c(C)c(F)c1/C=C(\F)C(=O)NC(C)C [Compound 518] | 7.2 nM
10 | Cc1cc(-c2cc(O)c3[nH]ccc3c2)c(C)cc1/C=C(\Cl)C(=O)NC(C)C [Compound 267] | 7.31 nM
11 | COc1c(C)c(-c2ccc(NCC=C(C)C)cc2)c(OC)c(C)c1/C=C(\C)C(=O)NC(C)C [Compound 574] | 9.32 nM
12 | CC/C(=C\c1c(C)c(OC)c(-c2ccc(NC(C)C)cc2)c(C)c1OC)C(=O)NC(C)C [Compound 530] | 9.8 nM
13 | C/C(=C\c1c(C)c(C)c(-c2ccc(NC(C)C)cc2)c(C)c1C)C(=O)NC1CCCC1 [Compound 434] | 2.39 nM
14 | CC/C(=C\c1cc(C)c(-c2ccc(NC(C)C)cc2F)cc1C)C(=O)NC1CCCC1 [Compound 321] | 6.39 nM
15 | C/C(=C\c1c(C)c(C)c(-c2ccc(NCc3ccco3)cc2)c(C)c1C)C(=O)NC(C)C [Compound 418] | 2.79 nM
16 | C/C(=C\c1c(C)c(C)c(-c2ccc(NC3CCCC3)cc2)c(C)c1C)C(=O)NC1CC1 [Compound 426] | 1.01 nM
17 | COc1c(C)c(-c2ccc(NC(C)C)cc2)c(OC)c(C)c1/C=C(\C)C(=O)NC1CCCC1 [Compound 528] | 3.33 nM
18 | C/C(=C\c1c(C)c(C)c(-c2ccc(NC3CCCC3)cc2)c(C)c1C)C(=O)NC(C)C [Compound 416] | 2.63 nM
19 | COc1cc(-c2ccc(NCc3ccco3)cc2F)c(OC)cc1/C=C(\C)C(=O)NC(C)C [Compound 27] | 7.73 nM
20 | COc1c(C)c(-c2ccc(NCC=C(C)C)cc2)c(OC)c(C)c1/C=C(\C)C(=O)NC1CCCC1 [Compound 575] | 9.65 nM
21 | C/C(=C\c1c(C)c(C)c(-c2ccc(NC3CCCC3)cc2)c(C)c1C)C(=O)NC1CCCC1 [Compound 463] | 9.22 nM
22 | C/C(=C\c1c(C)c(C)c(-c2ccc(NC(C)C)cc2F)c(C)c1C)C(=O)NS(=O)(=O)c1ccccc1 [Compound 422] | 6.49 nM

Row | SMILES | IC50
23 | COC(=O)[C@@H](C)NC(=O)/C(C)=C/c1cc(C)c(-c2ccc(NC(C)C)cc2F)cc1C [Compound 348] | 6.1 nM
24 | C/C(=C\c1cc(C)c(-c2ccc(NC(C)C)cc2F)cc1C)C(=O)NC1CC1 [Compound 154] | 7.88 nM
25 | C/C(=C\c1cc(C)c(-c2ccc(NC3CCCC3)cc2)cc1C)C(=O)NC(C)(C)C [Compound 414] | 8.84 nM
26 | COc1cc(-c2ccc(NCc3ccco3)cc2F)c(OC)cc1/C=C(/F)C(=O)NC(C)C [Compound 42] | 10.1 nM
27 | CC/C(=C\c1cc(C)c(-c2ccc(NC3CCCC3)cc2)cc1C)C(=O)NC1CCCC1 [Compound 313] | 11.1 nM
28 | CC/C(=C\c1cc(C)c(-c2ccc(NC3CCCC3)cc2F)cc1C)C(=O)NC1CCCC1 [Compound 324] | 4.68 nM
29 | C/C(=C\c1c(C)c(C)c(-c2ccc3[nH]ccc3c2)c(C)c1C)C(=O)NC1CC1 [Compound 417] | 6.71 nM
30 | COc1cc(-c2ccc(NC(C)C)cc2F)c(OC)cc1/C=C(\C)C(=O)NC1CC1 [Compound 24] | 7.52 nM
31 | Cc1cc(-c2cc(O)c3[nH]ccc3c2)c(C)cc1/C=C(\Cl)C(=O)NC1CC1 [Compound 268] | 5.78 nM
32 | C/C(=C\c1c(C)c(C)c(-c2ccc(NCc3ccco3)cc2)c(C)c1C)C(=O)NC1CC1 [Compound 425] | 0.91 nM
33 | CC/C(=C\c1cc(C)c(-c2ccc(NC3CCCC3)cc2F)cc1C)C(=O)NC1CCCCC1 [Compound 325] | 10.2 nM
34 | COc1c(C)c(-c2ccc(NC3CCCC3)cc2)c(OC)c(C)c1/C=C(\C)C(=O)NC1CCCC1 [Compound 536] | 8.39 nM
35 | Cc1cc(-c2ccc3[nH]ccc3c2)c(C)cc1/C=C(\Cl)C(=O)N[C@H](C)C(=O)O [Compound 299] | 9.57 nM
36 | C/C(=C\c1cc(C)c(-c2ccc(NCc3ccco3)cc2F)cc1C)C(=O)NC(C)C [Compound 158] | 7.13 nM
37 | COc1cc(-c2ccc(NCc3ccco3)cc2F)c(OC)cc1/C=C(/F)C(=O)NC1CC1 [Compound 41] | 8.14 nM
38 | C/C(=C\c1c(C)c(C)c(-c2ccc(NC(C)C)cc2)c(C)c1C)C(=O)NC(C)C [Compound 415] | 6.11 nM
39 | C/C(=C\c1cc(C)c(-c2cccc3[nH]ccc23)cc1C)C(=O)NC1CC1 [Compound 281] | 5.23 nM
40 | C/C(=C\c1c(C)c(C)c(-c2ccc(NC(C)C)cc2)c(C)c1C)C(=O)NC1CC1 [Compound 424] | 2.56 nM
41 | C/C(=C\c1cc(C)c(-c2ccc(NCc3ccco3)cc2F)cc1C)C(=O)NC1CCCC1 [Compound 334] | 2.46 nM
42 | COc1cc(-c2ccc(NCc3ccco3)cc2F)c(OC)cc1/C=C(\C)C(=O)NC1CC1 [Compound 28] | 7.33 nM
43 | CO/C(=C\c1cc(C)c(-c2ccc(NC(C)C)cc2F)cc1C)C(=O)NC(C)C [Compound 292] | 2.76 nM
